# Measured values reported in patent publication US20230219904A1 (SYNGENTA CROP PROTECTION AG, priority 2020, published 2023).
# Legend:
# Type in all cases: in vivo
# Settings in all cases: evaluated after 13 days
# [1] = test system: Abutilon theophrasti (ABUTH); assay: Pre-emergence herbicidal glasshouse test (Table B1)
# Method in brief: (§1)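 Glasshouse pot test: compounds sprayed pre-emergence (day 1) or post-emergence (day 8) at 500 g/h unless stated. Evaluation at 13 days as percentage damage, reported on a five-point scale where 5 means 80-100%.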
# [2] = test system: Amaranthus retoflexus (AMARE); assay: as above
# Method in brief: as §1
# [3] = test system: Echinochloa crus-galh (ECHCG); assay: as above
# Method in brief: as §1
# [4] = test system: Ipomoea hederacea (IPOHE); assay: as above
# Method in brief: as §1
# Setaria faberi (SETFA) [5] = assay: as above
# Method in brief: as §1
# [6] = test system: Abutilon theophrasti (ABUTH); assay: Post-emergence herbicidal glasshouse test (Table B1)
# Method in brief: as §1
# [7] = test system: Amaranthus retoflexus (AMARE); assay: as above
# Method in brief: as §1
# [8] = test system: Echinochloa crus-galh (ECHCG); assay: as above
# Method in brief: as §1
# [9] = test system: Ipomoea hederacea (IPOHE); assay: as above
# Method in brief: as §1
# Setaria faberi (SETFA) [10] = assay: as above
# Method in brief: as §1
SMILES,"PRE Application ABUTH, percentage damage on five-point scale ([1]; applied at 125 g/ha)","PRE Application AMARE, percentage damage on five-point scale ([2]; applied at 125 g/ha)","PRE Application ECHCG, percentage damage on five-point scale ([3]; applied at 125 g/ha)","PRE Application IPOHE, percentage damage on five-point scale ([4]; applied at 125 g/ha)","PRE Application SETFA, percentage damage on five-point scale (Setaria faberi (SETFA) [5]; applied at 125 g/ha)","POST Application ABUTH, percentage damage on five-point scale ([6]; applied at 125 g/ha)","POST Application AMARE, percentage damage on five-point scale ([7]; applied at 125 g/ha)","POST Application ECHCG, percentage damage on five-point scale ([8]; applied at 125 g/ha)","POST Application IPOHE, percentage damage on five-point scale ([9]; applied at 125 g/ha)","POST Application SETFA, percentage damage on five-point scale (Setaria faberi (SETFA) [10]; applied at 125 g/ha)","PRE Application ABUTH, percentage damage on five-point scale ([1]; applied at 500 g/h)","PRE Application AMARE, percentage damage on five-point scale ([2]; applied at 500 g/h)","PRE Application ECHCG, percentage damage on five-point scale ([3]; applied at 500 g/h)","PRE Application IPOHE, percentage damage on five-point scale ([4]; applied)","PRE Application SETFA, percentage damage on five-point scale (Setaria faberi (SETFA) [5]; applied at 500 g/h)","POST Application ABUTH, percentage damage on five-point scale ([6]; applied at 500 g/h)","POST Application AMARE, percentage damage on five-point scale ([7]; applied at 500 g/h)","POST Application ECHCG, percentage damage on five-point scale ([8]; applied at 500 g/h)","POST Application IPOHE, percentage damage on five-point scale ([9]; applied at 500 g/h)","POST Application SETFA, percentage damage on five-point scale (Setaria faberi (SETFA) [10]; applied at 500 g/h)"
CCC(=O)N(CC)c1c(OC(F)F)ccc(C(=O)Nc2nnnn2C)c1Cl [Compound 1.021],5 (5=80-100%),3 (3=40-59%),3 (3=40-59%),3 (3=40-59%),3 (3=40-59%),4 (4=60-79%),3 (3=40-59%),4 (4=60-79%),3 (3=40-59%),4 (4=60-79%),–,–,–,–,–,–,–,–,–,–
CCC(=O)Nc1c(OC(F)F)ccc(C(=O)Nc2nnnn2C)c1Cl [Compound 1.022],5 (5=80-100%),5 (5=80-100%),5 (5=80-100%),4 (4=60-79%),5 (5=80-100%),5 (5=80-100%),5 (5=80-100%),5 (5=80-100%),4 (4=60-79%),5 (5=80-100%),–,–,–,–,–,–,–,–,–,–
Cn1nnnc1NC(=O)c1ccc(OC(F)F)c(N2CCCCC2=O)c1Cl [Compound 1.023],5 (5=80-100%),5 (5=80-100%),5 (5=80-100%),2 (2=20-39%),5 (5=80-100%),5 (5=80-100%),5 (5=80-100%),5 (5=80-100%),5 (5=80-100%),5 (5=80-100%),–,–,–,–,–,–,–,–,–,–
CCC(=O)N(C)c1c(OC(F)F)ccc(C(=O)Nc2nnnn2C)c1Cl [Compound 1.024],5 (5=80-100%),5 (5=80-100%),4 (4=60-79%),4 (4=60-79%),4 (4=60-79%),4 (4=60-79%),3 (3=40-59%),4 (4=60-79%),4 (4=60-79%),4 (4=60-79%),–,–,–,–,–,–,–,–,–,–
CC(F)C(=O)Nc1c(OC(F)F)ccc(C(=O)Nc2nnnn2C)c1Cl (stereo not shown) [Compound 1.025],5 (5=80-100%),5 (5=80-100%),3 (3=40-59%),4 (4=60-79%),3 (3=40-59%),4 (4=60-79%),5 (5=80-100%),5 (5=80-100%),2 (2=20-39%),4 (4=60-79%),–,–,–,–,–,–,–,–,–,–
CCN(C(=O)C(C)F)c1c(OC(F)F)ccc(C(=O)Nc2nnnn2C)c1Cl (stereo not shown) [Compound 1.026],5 (5=80-100%),5 (5=80-100%),5 (5=80-100%),4 (4=60-79%),5 (5=80-100%),4 (4=60-79%),4 (4=60-79%),5 (5=80-100%),4 (4=60-79%),4 (4=60-79%),–,–,–,–,–,–,–,–,–,–
"COc1ccc(C(=O)Nc2nnnn2C)c(Cl)c1NC(=O)C(C)F (stereo not shown) [Compound 1.028, 2-chloro-3-(2-fluoropropanoylamino)-4-methoxy-N-(1-methyltetrazol-5-yl)benzamide]",–,–,–,–,–,–,–,–,–,–,5 (5=80-100%),5 (5=80-100%),4 (4=60-79%),3 (3=40-59%),3 (3=40-59%),5 (5=80-100%),5 (5=80-100%),3 (3=40-59%),4 (4=60-79%),4 (4=60-79%)
COc1ccc(C(=O)Nc2nnnn2C)c(Cl)c1NC(=O)C1CC1 [Compound 1.029],–,–,–,–,–,–,–,–,–,–,5 (5=80-100%),5 (5=80-100%),5 (5=80-100%),4 (4=60-79%),5 (5=80-100%),5 (5=80-100%),5 (5=80-100%),5 (5=80-100%),5 (5=80-100%),5 (5=80-100%)
"COc1ccc(C(=O)Nc2nnnn2C)c(Cl)c1NC(C)=O [Compound 1.030, 3-acetamido-2-chloro-4-methoxy-N-(1-methyltetrazol-5-yl)benzamide]",–,–,–,–,–,–,–,–,–,–,5 (5=80-100%),5 (5=80-100%),3 (3=40-59%),3 (3=40-59%),3 (3=40-59%),5 (5=80-100%),5 (5=80-100%),5 (5=80-100%),4 (4=60-79%),5 (5=80-100%)
CC(=O)Nc1c(OC(F)(F)C(F)F)ccc(C(=O)Nc2nnnn2C)c1Cl [Compound 1.031],4 (4=60-79%),5 (5=80-100%),4 (4=60-79%),3 (3=40-59%),3 (3=40-59%),4 (4=60-79%),4 (4=60-79%),4 (4=60-79%),4 (4=60-79%),4 (4=60-79%),–,–,–,–,–,–,–,–,–,–
Cn1nnnc1NC(=O)c1ccc(OC(F)(F)F)c(NC(=O)C2CC2(F)F)c1Cl (stereo not shown) [Compound 1.032],–,–,–,–,–,–,–,–,–,–,5 (5=80-100%),5 (5=80-100%),5 (5=80-100%),3 (3=40-59%),5 (5=80-100%),5 (5=80-100%),5 (5=80-100%),5 (5=80-100%),5 (5=80-100%),5 (5=80-100%)
Cn1nnnc1NC(=O)c1ccc(OC(F)(F)F)c(NC(=O)C2(C)CC2)c1Cl [Compound 1.033],–,–,–,–,–,–,–,–,–,–,5 (5=80-100%),5 (5=80-100%),5 (5=80-100%),5 (5=80-100%),5 (5=80-100%),5 (5=80-100%),5 (5=80-100%),5 (5=80-100%),5 (5=80-100%),5 (5=80-100%)
Cn1nnnc1NC(=O)c1ccc(OC(F)(F)F)c(NC(=O)CC2CC2)c1Cl [Compound 1.034],–,–,–,–,–,–,–,–,–,–,5 (5=80-100%),5 (5=80-100%),5 (5=80-100%),4 (4=60-79%),5 (5=80-100%),5 (5=80-100%),5 (5=80-100%),5 (5=80-100%),5 (5=80-100%),5 (5=80-100%)
